Reference: the NIST ThermoML archive (doi:10.1016/j.jct.2006.03.015)

What was measured:
[1] = Crystal; visual observation
[2] = mn = molality of the nth substance listed, in mol/kg; details: 101 kPa, Liquid; for apparent molar heat capacity: Flow calorimetry

CC(=O)N[C@@H](CCCCN)C(N)=O.Cl [(S)-2-acetamido-6-aminohexanamide hydrochloride]
Details	Normal melting temperature [°C]
[1]	144.4

CC(=O)NC(=O)[C@@H](N)Cc1ccc(O)cc1 [N-Acetyl-L-tyrosinamide]
Details	Normal melting temperature [°C]
[1]	225

CC(=O)N[C@@H](CC(N)=O)C(N)=O [(S)-2-acetamidosuccinamide]
Details	Normal melting temperature [°C]
[1]	244

CC(=O)N[C@@H](CCC(N)=O)C(N)=O [(S)-2-acetamidopentanediamide]
Details	Normal melting temperature [°C]
[1]	192.4

CC(=O)NC(=O)[C@@H](N)Cc1ccc(O)cc1 [N-Acetyl-L-tyrosinamide] + O
[2]
Details	apparent molar heat capacity [J/K/mol]	mass density [kg/m3]
288.15 K, m1 = 0.01175	508.1	999.692
288.15 K, m1 = 0.012	504.2	999.707
288.15 K, m1 = 0.01302	504.9	999.758
288.15 K, m1 = 0.01344	509	999.773
288.15 K, m1 = 0.01395	505.4	999.805
288.15 K, m1 = 0.01495	502.3	999.855
288.15 K, m1 = 0.01591	501.9	999.904
288.15 K, m1 = 0.01705	500.4	999.955
288.15 K, m1 = 0.0179	501.6	1000
288.15 K, m1 = 0.01902	503.4	1000.05
288.15 K, m1 = 0.01984	502.6	1000.1
298.15 K, m1 = 0.01196	517	997.637
298.15 K, m1 = 0.013	517.7	997.684
298.15 K, m1 = 0.01383	515.6	997.725
298.15 K, m1 = 0.01493	517	997.781
298.15 K, m1 = 0.01497	–	997.785
298.15 K, m1 = 0.01592	516.9	997.83
298.15 K, m1 = 0.017	–	997.885
298.15 K, m1 = 0.01809	519.4	997.94
298.15 K, m1 = 0.01905	–	997.984
298.15 K, m1 = 0.02018	511.5	998.035
313.15 K, m1 = 0.01197	542.3	992.782
313.15 K, m1 = 0.01299	543.8	992.827
313.15 K, m1 = 0.01401	543	992.874
313.15 K, m1 = 0.01501	545.3	992.925
313.15 K, m1 = 0.01596	546.3	992.967
313.15 K, m1 = 0.01693	541.4	993.013
313.15 K, m1 = 0.01787	543.5	993.057
313.15 K, m1 = 0.01892	542.6	993.101
328.15 K, m1 = 0.01201	553.5	986.242
328.15 K, m1 = 0.01295	552.2	986.289
328.15 K, m1 = 0.01394	549.9	986.33
328.15 K, m1 = 0.0149	556.4	986.378
328.15 K, m1 = 0.0159	554.4	986.421
328.15 K, m1 = 0.01694	552	986.462
328.15 K, m1 = 0.01796	555.6	986.514
328.15 K, m1 = 0.0189	555.1	986.548

CC(=O)N[C@@H](CCCCN)C(N)=O.Cl [(S)-2-acetamido-6-aminohexanamide hydrochloride] + O
[2]
Details	apparent molar heat capacity [J/K/mol]	mass density [kg/m3]
288.15 K, m1 = 0.02301	333.4	1000.28
288.15 K, m1 = 0.02858	336.3	1000.57
288.15 K, m1 = 0.0372	339.9	1001.01
288.15 K, m1 = 0.04378	339.8	1001.34
288.15 K, m1 = 0.05396	339.8	1001.86
288.15 K, m1 = 0.06411	343.1	1002.37
288.15 K, m1 = 0.07273	342	1002.8
288.15 K, m1 = 0.08089	341.3	1003.21
288.15 K, m1 = 0.08886	340.4	1003.6
288.15 K, m1 = 0.0972	343.1	1004.02
298.15 K, m1 = 0.02795	377.8	998.439
298.15 K, m1 = 0.03712	377.9	998.893
298.15 K, m1 = 0.04507	379.4	999.283
298.15 K, m1 = 0.05411	379.1	999.729
298.15 K, m1 = 0.06514	378.6	1000.27
298.15 K, m1 = 0.07363	379	1000.68
298.15 K, m1 = 0.08347	378.8	1001.16
298.15 K, m1 = 0.08995	379	1001.47
313.15 K, m1 = 0.02397	404.5	993.394
313.15 K, m1 = 0.03035	411.1	993.703
313.15 K, m1 = 0.03705	406.4	994.027
313.15 K, m1 = 0.04583	409.4	994.449
313.15 K, m1 = 0.05213	–	994.754
313.15 K, m1 = 0.05469	404	–
313.15 K, m1 = 0.05752	–	995.015
313.15 K, m1 = 0.06361	405.8	995.306
313.15 K, m1 = 0.06804	408	995.516
313.15 K, m1 = 0.07802	406.1	995.99
328.15 K, m1 = 0.02685	429	986.984
328.15 K, m1 = 0.03581	428	987.412
328.15 K, m1 = 0.04352	428.9	987.778
328.15 K, m1 = 0.05273	429.2	988.207
328.15 K, m1 = 0.06308	431.9	988.699
328.15 K, m1 = 0.07041	431.9	989.042
328.15 K, m1 = 0.08088	432.4	989.527
328.15 K, m1 = 0.0877	433.2	989.846

CC(=O)N[C@@H](CCC(N)=O)C(N)=O [(S)-2-acetamidopentanediamide] + O
[2]
Details	apparent molar heat capacity [J/K/mol]	mass density [kg/m3]
288.15 K, m1 = 0.03981	353.8	1000.96
288.15 K, m1 = 0.04349	350.3	1001.13
288.15 K, m1 = 0.0507	353.7	1001.46
288.15 K, m1 = 0.05943	355.1	1001.86
288.15 K, m1 = 0.06967	356.4	1002.33
288.15 K, m1 = 0.07857	350.8	1002.75
288.15 K, m1 = 0.08453	356.6	1003.03
288.15 K, m1 = 0.09265	354.1	1003.38
288.15 K, m1 = 0.1008	353.9	1003.78
298.15 K, m1 = 0.04537	377.9	999.104
298.15 K, m1 = 0.05783	383.7	999.659
298.15 K, m1 = 0.06765	378	1000.1
298.15 K, m1 = 0.08263	379.9	1000.77
298.15 K, m1 = 0.09722	382.3	1001.41
298.15 K, m1 = 0.1055	382.8	1001.79
298.15 K, m1 = 0.1217	379.5	1002.51
298.15 K, m1 = 0.133	381.1	1003.01
298.15 K, m1 = 0.1455	382.4	1003.56
313.15 K, m1 = 0.03917	407.2	–
313.15 K, m1 = 0.04565	409.1	994.219
313.15 K, m1 = 0.05555	410.8	994.65
313.15 K, m1 = 0.06371	410.7	995.007
313.15 K, m1 = 0.07398	410.7	995.463
313.15 K, m1 = 0.08191	408.9	995.809
313.15 K, m1 = 0.08959	408.6	996.143
313.15 K, m1 = 0.1002	409	996.596
328.15 K, m1 = 0.03787	430.2	987.321
328.15 K, m1 = 0.04577	430	987.659
328.15 K, m1 = 0.05585	431.2	988.092
328.15 K, m1 = 0.0626	431.6	988.383
328.15 K, m1 = 0.07189	432.4	988.783
328.15 K, m1 = 0.08069	430.4	989.147
328.15 K, m1 = 0.0903	429.9	989.565
328.15 K, m1 = 0.1056	–	990.212
